According to US10428151B2, “Treatment of hematologic malignancies with an anti-CXCR4 antibody” (BRISTOL-MYERS SQUIBB COMPANY, priority 2011, dated 2019):
“And” between values parts separate entries of the source, which are not always exact repeats. Equal entries are not always repeated.

Key:
Nomo-1 = Nomo-1 AML xenograft; format: in vivo, SCID mice
Description: In the Nomo-1 model (7.5 million cells implanted subcutaneously as in Example 14).

Ramos cells = experiment: Ramos lymphoma xenograft in SCID mice; format: in vivo
Protocol: When a mean and median tumor size of 80 mm^3 was reached, the mice were randomized (n=8) according to tumor volume. […] Tumors and body weights were measured twice weekly. Tumor volumes were measured in three dimensions (L×W×H/2) with a Fowler Electronic Digital Caliper (Model 62379-531; Fred V. Fowler Co., Newton, Mass.), and data was electronically recorded using Study Director software from StudyLog Systems, Inc. (South San Francisco, Calif.). Animals were checked daily for postural, grooming, and respiratory changes, as well as lethargy. Mice were euthanized when the tumors reached the 2000 mm^3 endpoint or appeared ulcerated.

HL-60 cells = experiment: HL-60 AML xenograft in SCID mice; format: in vivo; conditions: for median tumor growth inhibition: Day 27, 10 mg/kg/dose
Description: To assess the antibody's efficacy in AML, two cytarabine-resistant mouse xenograft models, HL-60 and Nomo-1 were used. CXCR4 expression in each cell line was confirmed by FACS staining (FIG. 4A). SCID mice were subcutaneously implanted with 10 million HL-60 cells as described in Example 14.

MM cells [1] = conditions: compared to vehicle-treated mice; Roccaro et al., 2012; cited from earlier work
[2] = tested on: MDA-MB231 human breast cancer cells; experiment: MDA-MB231 breast cancer xenograft; format: in vivo, mouse
Description: In one experiment, 7.5×10^6 MDA-MB231 human breast cancer cells/mouse were implanted into the flank region of each mouse and allowed to grow to a mean size of 100 mm^3, calculated by length×width×height/2 of the tumors, which was day 7 post-implantation. The mice were randomized into different treatment groups and received an intraperitoneal (IP) injection of a first dose of antibody on day 7 post-implantation, received a second IP dose of antibody on day 14 post-implantation and then received a third dose on day 46 post-implantation. […] Tumor volumes were measured at regular intervals and the mean and median tumor volume determined for each treatment group at each interval.

melanoma = melanoma xenograft model; compared to vehicle-treated mice; Roccaro et al., 2012; cited from earlier work
[3] = tested on: Twist, Snail, Slug, E-Cadherin; conditions: Roccaro et al., 2012; cited from earlier work
[4] = tested on: HPAC human pancreatic adenocarcinoma cells; experiment: HPAC subcutaneous xenograft; format: in vivo, mouse
Protocol: (§1) Additional subcutaneous xenograft tumor models were tested for the ability of anti-CXCR4 antibodies to inhibit tumor growth, in experiments similar to those described above and in Example 9. […] Although the tumor cells in vivo were stainable by the mAb by immunohistochemistry, it is unclear at what stage of their tumor growth CXCR4 began to be expressed.

[5] = tested on: NIH-H226 lung carcinoma cells; experiment: NIH-H226 subcutaneous xenograft; format: in vivo, mouse
Protocol: as §1

[6] = tested on: Namalwa Burkitt's lymphoma cells; experiment: Namalwa subcutaneous xenograft; format: in vivo, mouse
Protocol: as §1

MM cells [7] = experiment: Apoptotic and CXCL12 signalling pathways in MM cells; format: cell-based
Description: The BMS936564 antibody targeted MM cells in the context of BM milieu by overcoming BMSC-induced proliferation of tumor cells. […] Importantly, as described in Example 16, BMS936564 inhibited MM cell proliferation in vivo in xenograft mouse models.

MOLP-8 cells = experiment: MOLP-8 MM xenograft in SCID mice; format: in vivo
Protocol: In all the experiments, the mice were injected intraperitoneally on Days 0 and 7 with an IgG4 isotype control and a PBS vehicle control.

CCRF-CEM = CCRF-CEM tumor growth inhibition (monotherapy); format: in vivo
[8] = tested on: DMS79 human small cell lung carcinoma cells; experiment: DMS79 small cell lung carcinoma xenograft; format: in vivo, mouse; conditions: Day 34 post-implantation; 10 mg/kg IP Q3D×5
Protocol: In a second experiment, 5×10^6 DMS79 human small cell lung carcinoma cells/mouse were implanted into the flank region of each mouse and allowed to grow to a mean size of 160 mm^3, calculated by length×width×height/2 of the tumors, which was day 7 post-implantation. The mice were randomized into different treatment groups and received intraperitoneal (IP) injections of antibody on a dosing schedule of Q3D×5 (every three days for five times). […] Tumor volumes were measured at regular intervals and the mean and median tumor volume determined for each treatment group at each interval.

MM.1S cells = experiment: MM.1S MM xenograft in SCID mice; format: in vivo
Ramos tumor cells = experiment: Ramos cell proliferation, 3H-thymidine incorporation; format: cell-based, human; conditions: 10^−3 to 300 nM; 72 hours
Protocol: In this example, the ability of the anti-CXCR4 human antibodies to inhibit proliferation of Ramos tumor cells (a human Burkitt's lymphoma cell line) in vitro was examined. […] The cells were incubated with antibody for 72 hours, with ^3H-thymidine being added for the final 24 hours of incubation to allow for monitoring of cell proliferation. Following the incubation, incorporation of ^3H-thymidine by the cells was measured by standard techniques. The results are shown in the graph of FIG. 11A.

CLL cells = conditions: Kashyap et al., 2012; cited from earlier work
primary MM cells = conditions: Roccaro et al., 2012; cited from earlier work
[9] = Day 59 post-implantation, 15 mg/kg IP

BMS-936564: fully human anti-CXCR4 monoclonal antibody; VH SEQ ID NO: 25, VL SEQ ID NO: 29
% Tumor Growth Inhibition (Monotherapy) (Nomo-1; Nomo-1): 88% | median tumor growth inhibition (Nomo-1; day 34, 10 mg/kg/dose, compared to isotype or vehicle control): 88% | time the inhibition was maintained (Ramos cells; 15 mg/kg/dose IP Days 0 and 7): 60 days | median growth inhibition (Ramos cells; Day 21, 15 mg/kg/dose IP Days 0 and 7): 99% | % Tumor Growth Inhibition (Monotherapy) (Ramos cells; Ramos): 80% | median tumor growth inhibition (HL-60 cells; compared to isotype): 88% | median tumor growth inhibition (HL-60 cells; compared to vehicle): 83% | % Tumor Growth Inhibition (Monotherapy) (HL-60 cells; HL60): 60% and 82% | MM cell dissemination to distant bone marrow niches (MM cells [1]): less MM cell dissemination | Mean tumor volume ([2]; Day 52 post-implantation, 15 mg/kg IP): 79 mm^3 | Median tumor volume [2, 9]: 108 mm^3 | TGI (%) (median) [2, 9]: 52% | mice tumor free ([2]; day 59, n=9): one | number of metastasis (melanoma): reduced number of metastasis | effect on EMT-related proteins [3]: inhibits the EMT-related proteins Twist, Snail and Slug, and up-regulates E-Cadherin | tumor growth inhibition [4]: no tumor growth inhibition | tumor growth inhibition [5]: no tumor growth inhibition | % Tumor Growth Inhibition (Monotherapy) [6]: 66% | tumor growth inhibition ([6]; 3 mg/kg): approximately 70% | CXCL12-induced ERK-, Aid-, and Src-phosphorylation (MM cells [7]): inhibited by BMS936564 in a dose-dependent manner | activation of apoptotic pathways in MM cells (MM cells [7]): cleavage of caspase-9 and PARP | delay of mean tumor growth (MOLP-8 cells; Day 25, 10 mg/kg/dose, compared to isotype antibody control, 10 mg/kg): 66% and 56% | tumor growth inhibition (MOLP-8 cells; MOLP8): MDX-1338 = 56% | % Tumor Growth Inhibition (Monotherapy) (MOLP-8 cells; MOLP-8): 66% | mice remained at end of study (MOLP-8 cells; day 42): 5 out of 8 | % Tumor Growth Inhibition (Monotherapy) (CCRF-CEM): 72% | Mean tumor volume [8]: 620 mm^3 | Median tumor volume [8]: 599 mm^3 | TGI (%) (mean) [8]: 38% | mean tumor growth inhibition (MM.1S cells; Day 25, compared to isotype control, MDX-1338 10 mg/kg/dose, lenalidomide 100 mg/kg): 60% | % Tumor Growth Inhibition (Monotherapy) (MM.1S cells; MM.1S): 49% | tumor growth inhibition (MM.1S cells; MM.1S): MDX-1338 = 60% | inhibition of Ramos cell proliferation (3H-thymidine incorporation) (Ramos tumor cells): able to inhibit Ramos cell proliferation | inhibition of CXCL12-mediated F-actin polymerization in CLL cells (CLL cells): at lower concentrations than with AMD-3100 | adhesion of primary MM cells to BMSCs (primary MM cells): inhibited by BMS936564 in a dose-dependent manner
